# Assay results taken from patent publication US20110190265A1, “METHODS AND COMPOSITIONS FOR TREATING BACTERIAL INFECTIONS BY INHIBITING QUORUM SENSING” (priority 2008, published 2011).
# Experiments:
# EcMTAN = EcMTAN (Escherichia coli, UniProt P0AF12); conditions: purified EcMTAN; cited from earlier work
# [1] = tested on: autoinducer production by V. cholerae N16961; assay: microbe, parasite or virus in culture; conditions: Vibrio cholerae, read-out: AI Inhibition IC50, BB170 (ai1−ai2+)
# [2] = biological target: MTAN activity in V. cholerae N16961 cells (Vibrio cholerae serotype O1, UniProt Q9KPI8)
# human MTAP = human MTAP (Homo sapiens, UniProt Q13126); conditions: read-out: affinity for purified human MTAP; cited from earlier work
# human MTAP, sequence (Q13126 whole entry): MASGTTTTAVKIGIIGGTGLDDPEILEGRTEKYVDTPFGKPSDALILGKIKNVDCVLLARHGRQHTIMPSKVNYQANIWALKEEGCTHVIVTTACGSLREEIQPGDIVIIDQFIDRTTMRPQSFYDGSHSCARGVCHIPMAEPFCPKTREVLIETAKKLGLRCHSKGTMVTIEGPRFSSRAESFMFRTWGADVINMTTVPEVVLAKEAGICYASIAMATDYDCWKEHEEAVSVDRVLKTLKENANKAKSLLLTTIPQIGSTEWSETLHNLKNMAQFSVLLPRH
# VcMTAN = biological target: T1, VcMTAN (Vibrio cholerae serotype O1, UniProt Q9KPI8); assay: Inhibition of purified MTAN activity (xanthine oxidase-coupled assay); type: biochemical; conditions: ratio of dissociation constants of the inhibitor pair
# T1 construct: residues 1-230 for each monomer of VcMTAN in the asymmetric unit; The largest part of the N-terminal 6-His tag and the last C-terminal residue, 231; made in house; host or cells: E. coli BL21 Star (pBAD-DEST49)
# T1 sequence (Q9KPI8 1-231): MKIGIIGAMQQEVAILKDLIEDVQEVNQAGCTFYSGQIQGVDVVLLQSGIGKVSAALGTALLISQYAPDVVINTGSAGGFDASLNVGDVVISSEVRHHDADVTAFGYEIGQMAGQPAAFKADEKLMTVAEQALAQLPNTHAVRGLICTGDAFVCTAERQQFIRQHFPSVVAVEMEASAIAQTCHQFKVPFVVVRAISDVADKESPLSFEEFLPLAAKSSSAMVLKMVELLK
# Procedure: Inhibition of purified MTAN activity. […] Reactions were monitored for 2 hours at 25° C. on a Cary 300 Bio UV-Vis spectrophotometer. Inhibition constants were obtained by fitting the data to the following expression for competitive inhibition using KaleidaGraph 3.6 (Synergy Software, Reading, Pa.):
# where νs′ and νs are steady state rates in the presence, and absence of inhibitor, respectively; Km is the Michaelis constant for substrate MTA which was obtained as described above; [S] and [I] are the concentrations of MTA and inhibitor, respectively. If the concentration of inhibitor is smaller than 10-fold concentration of enzymes, the following correction was then applied:
# EcMTAN, sequence (P0AF12 whole entry): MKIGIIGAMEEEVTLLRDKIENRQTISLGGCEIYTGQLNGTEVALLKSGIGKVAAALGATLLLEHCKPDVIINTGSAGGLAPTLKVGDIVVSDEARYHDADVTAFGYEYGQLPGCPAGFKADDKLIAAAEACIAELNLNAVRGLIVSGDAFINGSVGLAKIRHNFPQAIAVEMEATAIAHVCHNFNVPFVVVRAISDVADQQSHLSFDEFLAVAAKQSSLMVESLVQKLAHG
structure (smiles),measurement,setting,value
Nc1ncnc2c(CN3CC(O)C(CSc4ccc(Cl)cc4)C3)c[nH]c12 (stereo not shown) [para-chloro-phenylthio-DADMe-ImmA],Km/Ki,EcMTAN,~10^8
"CCSCC1CN(Cc2c[nH]c3c(N)ncnc23)CC1O (stereo not shown) [EtT-DADMe-ImmA, 5′-ethylthio-(EtT-) DADMe-ImmucillinA]",IC50,[1],11 nM
"CSCC1CN(Cc2c[nH]c3c(N)ncnc23)CC1O (stereo not shown) [MT-DADMe-ImmA, 5′-methylthio-(MT-) DADMe-ImmucillinA]",increase of cellular IC50 above Ki* (diffusion barrier),[2],~500 fold
same,Kd,human MTAP,0.086 nM
same,IC50,[1],0.94 nM
"CSC[C@H]1N[C@@H](c2c[nH]c3c(N)ncnc23)[C@H](O)[C@@H]1O [MT-ImmA, 5′-methylthio-ImmucillinA]",KImmA/KDADMe-ImmA,VcMTAN,135
"CCCCSCC1CN(Cc2c[nH]c3c(N)ncnc23)CC1O (stereo not shown) [BuT-DADMe-ImmA, 5′-butylthio-(BuT-)DADMe-ImmucillinA]",IC50,[1],1.4 nM
